Measured values taken from patent publication US4260682A, “High sensitivity assays for angiotensin converting enzyme” (priority 1979, dated 1981).
Peptide text beside a SMILES is read from it. * marks the point of attachment. Bz = O=C(c1ccccc1)*

Target: T1, Guinea pig serum ACE (Cavia porcellus, UniProt H0UWL7)
T1 sequence (H0UWL7 33-1234): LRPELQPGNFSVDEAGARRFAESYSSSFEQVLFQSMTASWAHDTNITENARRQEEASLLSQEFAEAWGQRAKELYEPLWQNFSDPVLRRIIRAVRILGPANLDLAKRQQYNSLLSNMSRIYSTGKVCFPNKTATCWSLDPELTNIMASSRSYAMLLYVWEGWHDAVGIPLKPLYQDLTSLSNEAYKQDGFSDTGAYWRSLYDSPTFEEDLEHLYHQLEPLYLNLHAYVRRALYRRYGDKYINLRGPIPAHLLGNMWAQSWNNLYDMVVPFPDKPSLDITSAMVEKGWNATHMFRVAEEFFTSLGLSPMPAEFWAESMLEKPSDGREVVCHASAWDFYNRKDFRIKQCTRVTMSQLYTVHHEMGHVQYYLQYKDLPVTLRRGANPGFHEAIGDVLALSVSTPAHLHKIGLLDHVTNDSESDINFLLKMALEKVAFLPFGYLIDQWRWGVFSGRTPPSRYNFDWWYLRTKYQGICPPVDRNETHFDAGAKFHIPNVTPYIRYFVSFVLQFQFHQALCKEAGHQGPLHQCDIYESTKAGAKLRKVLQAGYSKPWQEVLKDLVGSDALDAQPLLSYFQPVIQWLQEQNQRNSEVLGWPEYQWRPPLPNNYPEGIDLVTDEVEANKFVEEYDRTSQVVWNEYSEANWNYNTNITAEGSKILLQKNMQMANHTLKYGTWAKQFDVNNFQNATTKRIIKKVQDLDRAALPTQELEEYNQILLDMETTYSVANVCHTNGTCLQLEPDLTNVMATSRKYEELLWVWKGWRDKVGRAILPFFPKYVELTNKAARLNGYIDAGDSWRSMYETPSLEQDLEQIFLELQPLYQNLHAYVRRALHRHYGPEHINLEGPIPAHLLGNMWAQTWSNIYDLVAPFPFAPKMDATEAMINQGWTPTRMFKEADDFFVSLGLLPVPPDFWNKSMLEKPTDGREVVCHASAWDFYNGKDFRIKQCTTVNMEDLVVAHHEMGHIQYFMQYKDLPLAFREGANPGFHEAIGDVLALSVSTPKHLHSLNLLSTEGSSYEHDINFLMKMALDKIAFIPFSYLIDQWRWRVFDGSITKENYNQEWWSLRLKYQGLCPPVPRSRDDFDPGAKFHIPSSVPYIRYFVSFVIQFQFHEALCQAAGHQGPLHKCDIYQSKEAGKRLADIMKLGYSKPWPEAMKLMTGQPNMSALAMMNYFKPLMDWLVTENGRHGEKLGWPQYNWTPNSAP
Experiment: Kinetics of (sulfate-stimulated) HipHisLeu hydrolysis
Format: biochemical
Conditions: for 1/V / V (reaction velocity): 0.1 M NaCl; for V (reaction velocity): 0.75 M Na2 SO4, pH 8.0, 37° C.
Experimental: Kinetics of Sulfate-Stimulated HipHisLeu Hydrolysis
In each assay, 50 μl of Guinea pig serum diluted 1-20 (v/v) in the reaction buffer was mixed with 50 μl of buffer containing sufficient ^3 H-HipHisLeu to provide approximately 100,000 cpm total, together with sufficient unlabeled HipHisLeu to produce the desired substrate concentrations, as indicated in Table 2. […] The reaction mixture was then extracted with 1 ml ethyl acetate. 500 μl of the ethyl acetate fraction was sampled and counted in a scintillation counter.

SMILES: CC(C)C[C@H](NC(=O)[C@H](Cc1c[nH]cn1)NC(=O)CNC(=O)c1ccccc1)C(=O)O [HipHisLeu] (Bz-Gly-His-Leu-OH)
- Vmax (0.05 M Hepes, pH 8.0, 0.1 M NaCl, 0.75 M Na2 SO4, serum diluted 1-20): 5.59 nmol/min/mL
- reduction of Km (0.75 M Na2 SO4 in reaction mixture containing 0.1 M NaCl): about 15 fold
- 1/V (HipHisLeu 0.01 mM, 0.75 M Na2 SO4): 3.33 nmole^-1 · min .multi
- V (reaction velocity) (HipHisLeu 0.01 mM): 0.30 nmol/min/mL
- 1/V (HipHisLeu 0.02 mM, 0.75 M Na2 SO4): 1.92 nmole^-1 · min .multi
- V (reaction velocity) (HipHisLeu 0.02 mM): 0.52 nmol/min/mL
- 1/V (HipHisLeu 0.03 mM, 0.75 M Na2 SO4): 1.35 nmole^-1 · min .multi
- V (reaction velocity) (HipHisLeu 0.03 mM): 0.74 nmol/min/mL
- 1/V (HipHisLeu 0.04 mM, 0.75 M Na2 SO4): 0.78 nmole^-1 · min .multi
- V (reaction velocity) (HipHisLeu 0.04 mM): 1.28 nmol/min/mL
- 1/V (HipHisLeu 0.05 mM, 0.75 M Na2 SO4): 0.88 nmole^-1 · min .multi
- V (reaction velocity) (HipHisLeu 0.05 mM): 1.14 nmol/min/mL
- 1/V (HipHisLeu 0.06 mM, 0.75 M Na2 SO4): 0.78 nmole^-1 · min .multi
- V (reaction velocity) (HipHisLeu 0.06 mM): 1.28 nmol/min/mL
- 1/V (HipHisLeu 0.07 mM, 0.75 M Na2 SO4): 0.47 nmole^-1 · min .multi
- V (reaction velocity) (HipHisLeu 0.07 mM): 2.14 nmol/min/mL
- 1/V (HipHisLeu 0.08 mM, 0.75 M Na2 SO4): 0.57 nmole^-1 · min .multi
- V (reaction velocity) (HipHisLeu 0.08 mM): 1.76 nmol/min/mL
- decrease in Km (sulfate ion 0.75-1.1 M vs. without): 14 fold
